Tests used:
Assay in all cases: Bliss excess, mean over the matrix (fraction); higher = more synergy
[1] = test system: ATN-1 (T-Lymphoblastic Leukemia)
Procedure, shortened: (§1)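 Cell lines in DMEM/F12 or RPMI with 10% FBS were plated in 1536-well plates, held 24 hours at 37°C, 5% CO2, then given two-drug dose matrices for 72 hours (DMSO typically 0.2%). Viability was read by CellTiter-Glo 2.0 luminescence and scaled as inhibition from 0 (vehicle wells) to 1 (blank wells). Combination Emax is the second-highest inhibition in the matrix; Bliss excess is observed combination effect minus expected EA + EB − EA·EB, EA and EB being single-agent effects.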

[2] = test system: BC-1 (B-Cell Non-Hodgkin's Lymphoma)
Procedure, shortened: as §1

[3] = test system: C2BBe1 (Colorectal Carcinoma)
Procedure, shortened: as §1

C32 (Melanoma) = test system: C32 (Melanoma)
Procedure, shortened: as §1

[4] = test system: GRANTA-519 (B-Cell Non-Hodgkin's Lymphoma)
Procedure, shortened: as §1

HT-144 (Melanoma) = test system: HT-144 (Melanoma)
Procedure, shortened: as §1

[5] = test system: HT-3 (Cervical Carcinoma)
Procedure, shortened: as §1

[6] = test system: IGROV-1 (Ovarian Carcinoma)
Procedure, shortened: as §1

[7] = test system: JJN-3 (Plasma Cell Myeloma)
Procedure, shortened: as §1

[8] = test system: JURL-MK1 (Chronic Myelogenous Leukemia)
Procedure, shortened: as §1

[9] = test system: L-363 (Plasma Cell Myeloma)
Procedure, shortened: as §1

[10] = test system: NCI-H1648 (Lung Adenocarcinoma)
Procedure, shortened: as §1

[11] = test system: NCI-H2009 (Lung Adenocarcinoma)
Procedure, shortened: as §1

[12] = test system: NTERA-2-cl-D1 (Other Solid Carcinomas)
Procedure, shortened: as §1

[13] = test system: OVKATE (Ovarian Carcinoma)
Procedure, shortened: as §1

[14] = test system: RS4-11 (B-Lymphoblastic Leukemia)
Procedure, shortened: as §1

SK-N-DZ (Neuroblastoma) = test system: SK-N-DZ (Neuroblastoma)
Procedure, shortened: as §1

[15] = test system: SNU-1 (Gastric Carcinoma)
Procedure, shortened: as §1

[16] = test system: SUP-HD1 (Hodgkin's Lymphoma)
Procedure, shortened: as §1

[17] = test system: SW1463 (Colorectal Carcinoma)
Procedure, shortened: as §1

CC1(C)CCC(CN2CCN(c3ccc(C(=O)NS(=O)(=O)c4ccc(NCC5CCOCC5)c([N+](=O)[O-])c4)c(Oc4cnc5[nH]ccc5c4)c3)CC2)=C(c2ccc(Cl)cc2)C1 [Venetoclax] + Cn1cnc2c(F)c(Nc3ccc(Br)cc3Cl)c(C(=O)NOCCO)cc21 [Selumetinib] (first compound max 1 µM, 7x7, partner max 3 µM)
Bliss excess [1]: -0.0324 | Bliss excess [2]: 0.0211 | Bliss excess [3]: -0.102 | Bliss excess (C32 (Melanoma)): -0.0278 | Bliss excess [4]: -0.03 | Bliss excess (HT-144 (Melanoma)): -0.0616 | Bliss excess [5]: -0.0218 | Bliss excess [6]: -0.0068 | Bliss excess [7]: 0.0473 | Bliss excess [8]: -0.0249 | Bliss excess [9]: 0.0023 | Bliss excess [10]: -0.0379 | Bliss excess [11]: -0.024 | Bliss excess [12]: -0.0415 | Bliss excess [13]: -0.0584 | Bliss excess [14]: 0.0052 | Bliss excess (SK-N-DZ (Neuroblastoma)): -0.0156 | Bliss excess [15]: -0.0541 | Bliss excess [16]: -0.039 | Bliss excess [17]: -0.0631

NC1(C(=O)N[C@@H](CCO)c2ccc(Cl)cc2)CCN(c2ncnc3[nH]ccc23)CC1 [Capivasertib] + CC(=O)c1c(C)c2cnc(Nc3ccc(N4CCNCC4)cn3)nc2n(C2CCCC2)c1=O [Palbociclib] (first compound max 10 µM, 7x7, partner max 10 µM)
Bliss excess [1]: -0.0217 | Bliss excess [2]: 0.0026 | Bliss excess [3]: -0.0094 | Bliss excess (C32 (Melanoma)): 0.0018 | Bliss excess [4]: -0.0273 | Bliss excess (HT-144 (Melanoma)): -0.0486 | Bliss excess [5]: -0.0182 | Bliss excess [6]: -0.048 | Bliss excess [7]: -0.0257 | Bliss excess [8]: -0.0233 | Bliss excess [9]: -0.0413 | Bliss excess [10]: -0.0039 | Bliss excess [11]: -0.0054 | Bliss excess [12]: 0.0373 | Bliss excess [13]: -0.018 | Bliss excess [14]: -0.0425 | Bliss excess (SK-N-DZ (Neuroblastoma)): 0.0628 | Bliss excess [15]: 0.0634 | Bliss excess [16]: -0.0643 | Bliss excess [17]: -0.0837

CCN(CCO)CCCOc1ccc2c(Nc3cc(CC(=O)Nc4cccc(F)c4)[nH]n3)ncnc2c1 [AZD2811] + C=CCn1c(=O)c2cnc(Nc3ccc(N4CCN(C)CC4)cc3)nc2n1-c1cccc(C(C)(C)O)n1 [AZD1775] (first compound max 1 µM, partner max 1 µM)
Bliss excess [1]: 0.0053 | Bliss excess [2]: -0.031 | Bliss excess [3]: 0.024 | Bliss excess (C32 (Melanoma)): -0.0354 | Bliss excess [4]: -0.013 | Bliss excess (HT-144 (Melanoma)): 0.0516 | Bliss excess [5]: -0.0176 | Bliss excess [6]: -0.0034 | Bliss excess [7]: -0.0233 | Bliss excess [8]: -0.0001 | Bliss excess [9]: -0.0312 | Bliss excess [10]: -0.0388 | Bliss excess [11]: 0.0477 | Bliss excess [12]: 0.192 | Bliss excess [13]: -0.0565 | Bliss excess [14]: -0.0523 | Bliss excess (SK-N-DZ (Neuroblastoma)): -0.0289 | Bliss excess [15]: 0.0679 | Bliss excess [16]: -0.0238 | Bliss excess [17]: -0.0023

CCN(CCO)CCCOc1ccc2c(Nc3cc(CC(=O)Nc4cccc(F)c4)[nH]n3)ncnc2c1 [AZD2811] + C[C@@H]1COCCN1C2=NC(=NC(=C2)C3(CC3)[S@](=N)(=O)C)C4=C5C=CNC5=NC=C4 [AZD6738] (first compound max 1 µM, 7x7, partner max 10 µM)
Bliss excess [1]: -0.0839 | Bliss excess [2]: -0.1 | Bliss excess [3]: -0.0362 | Bliss excess (C32 (Melanoma)): -0.0803 | Bliss excess [4]: -0.0269 | Bliss excess (HT-144 (Melanoma)): -0.0711 | Bliss excess [5]: -0.0538 | Bliss excess [6]: -0.0453 | Bliss excess [7]: 0.0338 | Bliss excess [8]: 0.027 | Bliss excess [9]: -0.0485 | Bliss excess [10]: -0.0898 | Bliss excess [11]: -0.0359 | Bliss excess [12]: -0.065 | Bliss excess [13]: -0.0822 | Bliss excess [14]: 0.0023 | Bliss excess (SK-N-DZ (Neuroblastoma)): -0.0507 | Bliss excess [15]: 0.0129 | Bliss excess [16]: 0.0391 | Bliss excess [17]: -0.0218

COc1cccc2c1C(=O)c1c(O)c3c(c(O)c1C2=O)C[C@@](O)(C(=O)CO)C[C@@H]3O[C@H]1C[C@H](N)[C@H](O)[C@H](C)O1 [Doxorubicin] + Cc1cc2ncnn2cc1Nc1ncc2c(n1)n(C1CCOCC1)c(=O)n2C [AZD7648] (first compound max 1 µM, 7x7, partner max 10 µM)
Bliss excess [1]: 0.0967 | Bliss excess [2]: 0.094 | Bliss excess [3]: -0.0082 | Bliss excess (C32 (Melanoma)): 0.044 | Bliss excess [4]: 0.102 | Bliss excess (HT-144 (Melanoma)): 0.0302 | Bliss excess [5]: 0.127 | Bliss excess [6]: 0.0222 | Bliss excess [7]: 0.0238 | Bliss excess [8]: 0.0792 | Bliss excess [9]: 0.0622 | Bliss excess [10]: 0.0456 | Bliss excess [11]: 0.0653 | Bliss excess [12]: 0.0426 | Bliss excess [13]: -0.0594 | Bliss excess [14]: 0.171 | Bliss excess (SK-N-DZ (Neuroblastoma)): 0.112 | Bliss excess [15]: 0.0667 | Bliss excess [16]: 0.0727 | Bliss excess [17]: -0.0363

C=CCn1c(=O)c2cnc(Nc3ccc(N4CCN(C)CC4)cc3)nc2n1-c1cccc(C(C)(C)O)n1 [AZD1775] + O=C(c1cc(Cc2n[nH]c(=O)c3ccccc23)ccc1F)N1CCN(C(=O)C2CC2)CC1 [Olaparib] (first compound max 1 µM, partner max 10 µM)
Bliss excess [1]: -0.0189 | Bliss excess [2]: -0.0326 | Bliss excess [3]: -0.0322 | Bliss excess (C32 (Melanoma)): -0.0271 | Bliss excess [4]: -0.0679 | Bliss excess (HT-144 (Melanoma)): -0.0681 | Bliss excess [5]: -0.0055 | Bliss excess [6]: -0.0797 | Bliss excess [7]: -0.0591 | Bliss excess [8]: 0.001 | Bliss excess [9]: -0.0153 | Bliss excess [10]: -0.0216 | Bliss excess [11]: 0.0075 | Bliss excess [12]: 0.107 | Bliss excess [13]: -0.0316 | Bliss excess [14]: -0.0192 | Bliss excess (SK-N-DZ (Neuroblastoma)): -0.0122 | Bliss excess [15]: -0.0425 | Bliss excess [16]: -0.0346 | Bliss excess [17]: -0.0418

CC1(C)CCC(CN2CCN(c3ccc(C(=O)NS(=O)(=O)c4ccc(NCC5CCOCC5)c([N+](=O)[O-])c4)c(Oc4cnc5[nH]ccc5c4)c3)CC2)=C(c2ccc(Cl)cc2)C1 [Venetoclax] + CN(C)CCCOc1ccc(-c2ccc3ncc4c(c3c2)n(C2CCOCC2)c(=O)n4C)cn1 [AZD0156] (first compound max 1 µM, 7x7, partner max 1 µM)
Bliss excess [1]: 0.0437 | Bliss excess [2]: 0.0066 | Bliss excess [3]: -0.0333 | Bliss excess (C32 (Melanoma)): -0.015 | Bliss excess [4]: 0.0334 | Bliss excess (HT-144 (Melanoma)): 0.0366 | Bliss excess [5]: -0.0423 | Bliss excess [6]: -0.0236 | Bliss excess [7]: 0.0008 | Bliss excess [8]: -0.0151 | Bliss excess [9]: 0.0188 | Bliss excess [10]: -0.0685 | Bliss excess [11]: -0.0283 | Bliss excess [12]: -0.0372 | Bliss excess [13]: -0.0856 | Bliss excess [14]: -0.0088 | Bliss excess (SK-N-DZ (Neuroblastoma)): 0.013 | Bliss excess [15]: -0.0069 | Bliss excess [16]: -0.0962 | Bliss excess [17]: -0.045
